{"source": "patent US20190388389A1", "about": "“METHODS AND COMPOSITIONS OF CARNOSOL FOR INHIBITING UVB-INDUCED SKIN DAMAGE” (Ohio University, priority 2017, published 2019)", "key": {"MEF cells": {"test_system": "MEF cells", "experiment": "Cell survival analysis (Annexin V/PI flow cytometry), MEF", "assay_type": "cell-based, mouse", "conditions": "20 μM carnosol", "description": "FIGS. 6A-6C: Carnosol protects UVB-induced cell death. Cells were exposed to UVB radiation with different dose of carnosol treatment. At indicated time point, cells were collected and Annexin V/PI apoptosis detection kit was used to detect cell apoptosis. (FIG. 6A) HaCaT cell survival rate with different concentrations (μM) of carnosol treatment at 12 h post UVB radiation. (FIG. 6B) Time dependent assay (h) in the presence or absence of carnosol treatment in HaCaT cells. (FIG. 6C) MEF cells treated with 20 μM carnosol at indicated time point (h). The error bars present the standard deviation of three sets of independent experiments. *p<0.05 versus control group; **p<0.05 versus corresponded UV group.\nUVB was generated from a Bench XX-Series UV Lamp (UVP Inc.) equipped with two 15-watt UVB tubes (UVP Inc.). The intensity of UVB was calibrated by a UVP model UVX digital radiometer (UVP Inc.) after the lamps warmed up for 5 min. For irradiating cells, the dose rate for 8 mJ/cm^2 or 50 mJ/cm^2 of UVB radiation was 0.8 or 3.8 mW/s respectively. Medium was removed before exposing the cells to UVB. After UVB radiation, fresh medium was added to the culture plates with or without drugs, and the cells were continue incubating at 37° C. with 5% CO2 until further analysis. Carnosol was disovled in DMSO and was irradiated with 50 mJ/cm^2 of UVB radiation at a dose rate of 3.8 mW/s before subjecting to cells or structure analysis using Mass Spectrum.\nCarnosol (Cayman) (FIG. 1) was added to cells at indicated concentration at 1 h before exposing the cells to UVB radiation. After radiation, cells were continuously incubated with or without carnosol in the medium until further analysis.\nTotal cell number of 1×10^5 was used for each analysis using flow cytometer. Fluorescein isothiocyanate (FITC) conjugated-annexin V (ANXS)/propidium iodide (PI) apoptosis detection kit (BD Biosciences) were used to stain the cells through the determination of the loss of membrane phospholipid […] and membrane integrity. Cell survival rate (R) was calculated as: R=[1×10^5−number of positive stained cells]/1×10^5. Briefly, the cells were harvested by 0.25% trypsin digestion, combined with the cells floating in the medium and washed twice with cold PBS. The cells were then suspended in ANXS binding buffer (10 mM Hepes/NaOH, pH 7.4, 140 mM NaCl and 2.5 mM CaCl2). The cell suspension was mixed with 5 μL ANXS-FITC and 5 μL PI. The cell mixture was incubated for […] in dark at room temperature and the ANXS/PI double-stained cells were analyzed using a FACSort Flow Cytometer (BD Science) equipped with CellQuest software (BD Science)."}, "IκB": {"test_system": "IκB", "experiment": "Western blot for IκB protein level, HaCaT cells", "assay_type": "cell-based, Human", "description": "FIGS. 7A-7F: Carnosol inhibited UVB-induced NF-κB activation. Cells were exposed to UVB radiation in the presence or absence of carnosol. Cells were lysed at indicated time point and protein levels were measured by western blot analysis. (FIG. 7A) Western blot for IκB protein level in HaCaT cells at 2, 4 h post UVB radiation at 1, 10 or 20 μM carnosol treatment. (FIG. 7B) Western blot analysis for IκB protein level in HaCaT cells at 6 h post UVB radiation in the presence or absence of carnosol. (FIG. 7C) Western blot analysis for IκB protein level in MEF cells at 6 h post UVB radiation in the presence or absence of carnosol. (FIG. 7D) Western blot for 5276 site phosphorylation of NF-κB in HaCaT cells at 6 h post UVB with indicated carnosol concentration. (FIG. 7E) EMSA assay for HaCaT cells at 2, 4, 6 h post UVB radiation in the presence or absence of carnosol (20 μM). (FIG. 7F) Statistical analysis of the EMSA assay using two to three sets of independent experiments. *p<0.05 versus control group, **p<0.05 versus UV group at indicated time point.\nCells were lysed with Nonidet P-40 (NP-40) lysis buffer (2% NP-40, 80 mM NaCl, 100 mM Tris-HCl pH 8.0, 0.1% SDS) with proteinase inhibitor mixture (Complete™, Roche Molecular Biochemicals) at indicated time point. […] Protein concentration was measured by Protein DC Assay kit (Bio-Rad Laboratories). […]"}}, "data": [{"smiles": "CC(C)c1cc2c(c(O)c1O)[C@@]13CCCC(C)(C)[C@@H]1C[C@@H]2OC3=O", "note": "[carnosol]", "values": [{"measurement": "cell survival rate", "setting": "MEF cells; 12 h post UVB, UVB alone about 88%", "value": 97, "unit": "%"}, {"measurement": "cell survival rate", "setting": "MEF cells; 24 h post UVB, UVB alone 80%", "value": 90, "unit": "%"}, {"measurement": "cell survival rate", "setting": "MEF cells; 36 h post UVB, UVB alone 62%", "value": 70, "unit": "%"}, {"measurement": "cell survival rate", "setting": "MEF cells; 48 h post UVB, UVB alone 43%", "value": 58, "unit": "%"}, {"measurement": "IκB protein level", "setting": "IκB; HaCaT, 2, 4 h post UVB, dose dependent (1, 10, 20 μM)", "value": "protects IκB level"}, {"measurement": "IκB protein level", "setting": "IκB; HaCaT, 6 h post UVB", "value": "protection exists at least until 6 h"}]}]}
